Test results as given in ChEMBL document CHEMBL1770138, “Synthesis and SAR of pyrimidine-based, non-nucleotide P2Y14 receptor antagonists” (Bioorg Med Chem Lett, 2011).

Assays:
in vivo [1] = settings: C57B6, mouse, iv, 5 mg/kg
in vivo [2] = settings: C57B6, mouse, po, 50 mg/kg
in vivo [3] = settings: C57B6, mouse, iv, 5 mg/kg; remark: listed apart in the source
in vivo [4] = settings: C57B6, mouse
in vivo [5] = settings: C57B6, mouse, po, 50 mg/kg; remark: listed apart in the source
[6] = Drug uptake in plasma of C57B6 mouse after 24 hrs; assay type: ADME; settings: read-out: Drug uptake

clearance (in vivo [1]): 48 mL/min/kg | Cmax (in vivo [2]): 2400 nM | Vd (in vivo [3]): 19 L/kg | half-life (in vivo [4]): 11 h | bioavailability (in vivo [5]): 134% | concentration at 24 h [6]: 400 nM
SMILES: CCc1cccc(NC(=O)N2CCc3nc(-c4ccc5c(c4)OCO5)nc(-c4ccccc4C)c3C2)c1
